Measured values reported in ChEMBL document CHEMBL1201862, “PubChem BioAssay data set” (2004).
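A five-concentration, 48-hour dose response in 96-well plates underlies each endpoint, interpolated linearly between surrounding concentrations. Here, GI50 denotes the concentration required for 50% inhibition of growth.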 Activity calls are given as the source filed them. Cut-off read from the data, not from the text of the source: active = GI50 up to about 1.1 µM and inactive = higher.

Legend:
Assay in all cases: NCI tumour cell line growth inhibition, 48 h
HCT-15 = test system: HCT-15
HOP-62 = test system: HOP-62
Malme-3M = test system: Malme-3M
SK-MEL-28 = test system: SK-MEL-28
SK-MEL-2 = test system: SK-MEL-2
RPMI-8226 = test system: RPMI-8226
LOX IMVI = test system: LOX IMVI
HL-60 = test system: HL-60
SF-295 = test system: SF-295
ACHN = test system: ACHN
MDA-MB-231 = test system: MDA-MB-231
EKVX = test system: EKVX
MDA-N = test system: MDA-N
SNB-19 = test system: SNB-19
BT-549 = test system: BT-549
U-251 = test system: U-251
SNB-75 = test system: SNB-75
HCT-116 = test system: HCT-116
SK-MEL-5 = test system: SK-MEL-5
786-0 = test system: 786-0

Compound | GI50 (HCT-15) | GI50 (HOP-62) | GI50 (Malme-3M) | GI50 (SK-MEL-28) | GI50 (SK-MEL-2) | GI50 (RPMI-8226) | GI50 (LOX IMVI) | GI50 (HL-60) | GI50 (SF-295) | GI50 (ACHN) | GI50 (MDA-MB-231) | GI50 (EKVX) | GI50 (MDA-N) | GI50 (SNB-19) | GI50 (BT-549) | GI50 (U-251) | GI50 (SNB-75) | GI50 (HCT-116) | GI50 (SK-MEL-5) | GI50 (786-0)
C=CCOc1ccc(C2(O)c3ccccc3C3=NCCCN32)cc1 (stereo not given) | > 62.2 µM | 60.5 µM (inactive) | 12.3 µM (inactive) | 24.5 µM (inactive) | 20.3 µM (inactive) | 26.4 µM (inactive) | 48.8 µM (inactive) | 35.7 µM (inactive) | 51.5 µM (inactive) | 41.6 µM (inactive) | > 63 µM (inactive) | 80.5 µM (inactive) | 36.1 µM (inactive) | 47.8 µM (inactive) | > 100 µM (inactive) | 43.2 µM (inactive) | 32 µM (inactive) | 49.9 µM (inactive) | 22.1 µM (inactive) | 38.3 µM (inactive)
COC(=O)C(=O)C(C(=O)OC)C(=O)C(=O)Nc1ccccc1C(N)=O (stereo not given) | > 100 µM | > 100 µM (inactive) | > 100 µM (inactive) | > 100 µM (inactive) | > 100 µM (inactive) | > 100 µM (inactive) | > 100 µM (inactive) | > 100 µM (inactive) | > 100 µM (inactive) | > 100 µM (inactive) | > 100 µM (inactive) | > 100 µM (inactive) | > 100 µM (inactive) | > 100 µM (inactive) | > 100 µM (inactive) | > 100 µM (inactive) | > 100 µM (inactive) | > 100 µM (inactive) | > 100 µM (inactive) | > 100 µM (inactive)
Cc1ccc(-c2n[nH]c(=O)n2N)cc1 | > 100 µM | > 100 µM (inactive) | > 100 µM (inactive) | > 100 µM (inactive) | > 100 µM (inactive) | > 100 µM (inactive) | > 100 µM (inactive) | > 100 µM (inactive) | > 100 µM (inactive) | > 100 µM (inactive) | > 100 µM (inactive) | > 100 µM (inactive) | > 100 µM (inactive) | > 100 µM (inactive) | > 100 µM (inactive) | > 100 µM (inactive) | 48 µM (inactive) | > 100 µM (inactive) | > 100 µM (inactive) | > 100 µM (inactive)
c1ccc2c(c1)Nc1ccccc1[P+]21c2ccccc2Nc2ccccc21 | 5.73 µM | 0.313 µM (active) | 0.207 µM (active) | 0.244 µM (active) | 0.199 µM (active) | 0.0314 µM (active) | 0.587 µM (active) | 0.251 µM (active) | 1.3 µM (inactive) | 1.86 µM (inactive) | 0.212 µM (active) | 0.312 µM (active) | 0.27 µM (active) | 0.299 µM (active) | 0.153 µM (active) | 0.23 µM (active) | 0.0466 µM (active) | 0.151 µM (active) | 0.165 µM (active) | 0.401 µM (active)
COc1ccc(C2CC(c3c(C)nn(-c4ccccc4)c3-c3ccc(C)cc3O)=NN2c2ccccc2)cc1 (stereo not given) | 7.71 µM | > 100 µM (inactive) | 19.9 µM (inactive) | > 89.3 µM (inactive) | 14.1 µM (inactive) | 4.81 µM (inactive) | > 30.1 µM (inactive) | 9.27 µM (inactive) | 6.93 µM (inactive) | 13.9 µM (inactive) | > 46.5 µM (inactive) | > 33.5 µM (inactive) | 21.4 µM (inactive) | > 29 µM (inactive) | 55.3 µM (inactive) | 33.3 µM (inactive) | 5.04 µM (inactive) | 12.7 µM (inactive) | 18.5 µM (inactive) | > 100 µM (inactive)
CCOC(=O)CC[C@H](N)C(=O)N[C@@H](Cc1ccc(N(CCCl)CCCl)cc1)C(=O)OCC | 0.726 µM | 2.37 µM (inactive) | 0.291 µM (active) | 0.869 µM (active) | 2.69 µM (inactive) | 2.54 µM (inactive) | 0.184 µM (active) | 0.0705 µM (active) | 3.6 µM (inactive) | < 0.0348 µM (active) | 1.94 µM (inactive) | 2.3 µM (inactive) | 0.944 µM (active) | 4.69 µM (inactive) | 7.83 µM (inactive) | 1.94 µM (inactive) | 1.22 µM (inactive) | 0.851 µM (active) | 1.5 µM (inactive) | 0.685 µM (active)
CCOP(=O)(OCC)C(C)(C)OC(=O)NC#N | > 100 µM | > 100 µM (inactive) | > 100 µM (inactive) | > 100 µM (inactive) | > 100 µM (inactive) | > 100 µM (inactive) | > 100 µM (inactive) | > 100 µM (inactive) | > 100 µM (inactive) | > 100 µM (inactive) | > 100 µM (inactive) | > 100 µM (inactive) | > 100 µM (inactive) | > 100 µM (inactive) | 79.6 µM (inactive) | > 100 µM (inactive) | > 100 µM (inactive) | > 100 µM (inactive) | > 100 µM (inactive) | > 100 µM (inactive)
